# Laboratory results: patent publication US7056884B2, “Reduced FK228 and use thereof” (Astellas Pharma Inc., priority 2000, dated 2006)
# Test system: Mouse histone deacetylase
# Assay: Assay of histone deacetylase activity ([3H] acetylated histone, crude histone deacetylase from FM3A cells)
# Assay type: biochemical
# Conditions: crude histone deacetylase fraction from FM3A cells, [3H] acetylated histone substrate, 37° C. for 10 min
# Experimental: The histone deacetylase inhibitory activity of the FR135313 substance synthesized in Production Example 1 was examined.
# Mouse breast cancer FM3A was supplied by Dr. Dai Ayusawa of Medical Department, Yokohama City University. This cell was subcultured in an ES medium containing 2% FBS (Flow Laboratories, hereinafter to be referred to as ES medium) at 37° C., in 5% CO2.
# The [^3H] acetylated histone to be the substrate of histone deacetylase was prepared by culturing 1×10^8 cells of FM3A cell (suspended in 50 ml of ES medium) in the presence of 0.5 mCi/ml [^3H] sodium acetate and 5 mM sodium butyrate at 37° C. in 5% CO2 for 30 min, and immediately extracting histone fraction from the treated cells according to the following method. The specific radioactivity was 0.45 μCi/mg histone.
# Extraction of histone protein from culture cell was conducted according to the method of Yoshida et al. (M. Yoshida et al., J. Biol. Chem. 265, 17174–17179 (1990)). […]
# 4 μl of [^3H] acetylated histone (2500 cpm/5 μg) and 96 μl of crude histone deacetylase fraction were admixed. […] The reaction was terminated by the addition of 10 μl of concentrated hydrochloric acid, and released [^3H] acetic acid was extracted with 1 ml of ethyl acetate, from which 0.9 ml was added to 5 ml of toluene scintillation solution and the radioactivity was measured.
smiles,measurement,value
C/C=C1\NC(=O)[C@@H](CS)NC(=O)[C@@H](C(C)C)NC(=O)C[C@@H](/C=C/CCS)OC(=O)[C@H](C(C)C)NC1=O [FR135313 substance],histone deacetylase inhibitory activity IC50,not more than 1 ng/ml
